For experiment [1], the target named is T1, Vasoactive intestinal polypeptide receptor 2 (Homo sapiens, UniProt P41587).
T1 sequence (P41587 whole entry): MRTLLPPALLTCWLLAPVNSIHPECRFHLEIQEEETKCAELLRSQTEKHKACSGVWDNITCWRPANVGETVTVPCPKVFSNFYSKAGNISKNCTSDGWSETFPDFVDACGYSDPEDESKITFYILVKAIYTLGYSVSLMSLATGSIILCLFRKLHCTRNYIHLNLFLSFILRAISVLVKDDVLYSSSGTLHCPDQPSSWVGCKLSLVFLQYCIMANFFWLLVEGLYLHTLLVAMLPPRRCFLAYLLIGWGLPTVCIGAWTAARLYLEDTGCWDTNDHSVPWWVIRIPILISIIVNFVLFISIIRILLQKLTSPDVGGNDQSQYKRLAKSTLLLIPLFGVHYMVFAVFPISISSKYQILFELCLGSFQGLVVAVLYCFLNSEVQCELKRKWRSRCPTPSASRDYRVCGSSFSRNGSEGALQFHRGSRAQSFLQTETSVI
The experiment can be described thus: Agonist activity at human VIPR2 expressed in CHOK1 cells assessed as intracellular cAMP accumulation after 60 mins by PathHunter assay. Type of experiment: functional, cell-based. (In general: Cyclic AMP is a second messenger, typically raised through Gs and lowered through Gi signalling.)

Experiment [2] concerns the target T2, Vasoactive intestinal polypeptide receptor 1 (Homo sapiens, UniProt P32241).
T2 sequence (P32241 whole entry): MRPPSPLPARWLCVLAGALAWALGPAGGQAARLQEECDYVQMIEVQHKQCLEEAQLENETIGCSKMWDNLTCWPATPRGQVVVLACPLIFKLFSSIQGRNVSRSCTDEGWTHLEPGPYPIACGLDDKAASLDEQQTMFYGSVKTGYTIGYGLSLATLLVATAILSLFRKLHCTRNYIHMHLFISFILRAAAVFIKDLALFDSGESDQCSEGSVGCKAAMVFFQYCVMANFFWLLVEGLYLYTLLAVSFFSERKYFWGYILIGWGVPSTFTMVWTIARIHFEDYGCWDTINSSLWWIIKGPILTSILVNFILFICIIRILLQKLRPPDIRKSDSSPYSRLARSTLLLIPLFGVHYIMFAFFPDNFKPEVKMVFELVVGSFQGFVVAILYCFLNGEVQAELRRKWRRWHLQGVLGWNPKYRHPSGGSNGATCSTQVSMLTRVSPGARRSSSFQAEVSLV
Briefly: Agonist activity at human VIPR1 expressed in CHOK1 cells assessed as intracellular cAMP accumulation after 60 mins by PathHunter assay. Type of experiment: functional, cell-based.

For orientation: pEC50 means −log10 of the EC50, conventionally taken in molar units.

Molecules are shown by their SMILES. pEC50: −log10 of the molar value. Numbered stars: 1 amine (or outer) side, 2 acyl side, 3 side chain; on linkers, the order of the positions; unused ones are H or OH. Square brackets hold non-standard residues; d marks the D form. Peptide text beside a SMILES is read from it. ξ: configuration not given here. X1 = O=C([C@H]1CCC[C@@H]1N[*:1])[*:2]; X2 = O=C([C@H]1CNC[C@@H]1N[*:1])[*:2]; β3hN = NC(=O)C[C@H](N)CC(=O)O; β3hV = CC(C)[C@H](N)CC(=O)O; ξβ3hN = NC(=O)CC(N)CC(=O)O; ξβ3hL = CC(C)CC(N)CC(=O)O; ξβ3hK = NCCCCC(N)CC(=O)O; ξβ3hT = CC(O)C(N)CC(=O)O; ξβ3hV = CC(C)C(N)CC(=O)O; ξβ3hS = NC(CO)CC(=O)O; Aib = CC(C)(N)C(=O)O; βAla = NCCC(=O)O

As to `CC(=O)N[C@@H](Cc1cnc[nH]1)C(=O)N[C@H]1CCC[C@@H]1C(=O)N[C@@H](CC(=O)O)C(=O)N[C@@H](C)C(=O)N[C@H]1CCC[C@@H]1C(=O)N[C@@H](Cc1ccccc1)C(=O)N[C@H](C(=O)N[C@@H](CCC(=O)O)C(=O)N[C@H]1CCC[C@@H]1C(=O)N[C@@H](Cc1ccc(O)cc1)C(=O)N[C@H](C(=O)N[C@@H](CCCCN)C(=O)N[C@@H](CC(C)C)C(=O)N[C@@H](CCCNC(=N)N)C(=O)N[C@@H](CCCCN)C(=O)N[C@@H](CCC(N)=O)C(=O)N[C@@H](CC(C)C)C(=O)N[C@@H](C)C(=O)N[C@@H](C)C(=O)N[C@H]1CNC[C@@H]1C(=O)N[C@@H](CCCCN)C(=O)N[C@@H](Cc1ccc(O)cc1)C(=O)N[C@H]1CCC[C@@H]1C(=O)N[C@@H](CC(N)=O)C(=O)N[C@@H](CC(=O)O)C(=O)N[C@@H](CC(C)C)C(=O)NC(CCCCN)CC(=O)N[C@@H](CCCCN)C(=O)NCC(=O)NCCC(=O)N[C@H](C(=O)O)[C@@H](C)O)[C@@H](C)O)[C@@H](C)O` (stereo partly drawn) (Ac-H[X1]DA[X1]FTE[X1]YTKLRKQLAA[X2]KY[X1]NDL[ξβ3hK]KG[βAla]T-OH), the pEC50 in experiment [1] is 8.25; in experiment [2] it was under 6.00.
Regarding `CC(=O)N[C@@H](Cc1cnc[nH]1)C(=O)N[C@H]1CCC[C@@H]1C(=O)N[C@@H](CC(=O)O)C(=O)N[C@@H](C)C(=O)N[C@H](CC(=O)N[C@@H](Cc1ccccc1)C(=O)N[C@H](C(=O)N[C@@H](CCC(=O)O)C(=O)N[C@@H](CC(N)=O)CC(=O)N[C@@H](Cc1ccc(O)cc1)C(=O)N[C@H](C(=O)N[C@@H](CCCCN)C(=O)N[C@@H](CC(C)C)C(=O)N[C@@H](CCCNC(=N)N)C(=O)N[C@@H](CCCCN)C(=O)N[C@@H](CCC(N)=O)C(=O)N[C@@H](CC(C)C)C(=O)N[C@@H](C)C(=O)N[C@@H](C)C(=O)N[C@H]1CNC[C@@H]1C(=O)N[C@@H](CCCCN)C(=O)N[C@@H](Cc1ccc(O)cc1)C(=O)N[C@H]1CCC[C@@H]1C(=O)N[C@@H](CC(N)=O)C(=O)N[C@@H](CC(=O)O)C(=O)N[C@@H](CC(C)C)C(=O)NC(CCCCN)CC(=O)N[C@@H](CCCCN)C(=O)NCC(=O)NCCC(=O)N[C@H](C(=O)O)[C@@H](C)O)[C@@H](C)O)[C@@H](C)O)C(C)C` (stereo partly drawn) (Ac-H[X1]DA[β3hV]FTE[β3hN]YTKLRKQLAA[X2]KY[X1]NDL[ξβ3hK]KG[βAla]T-OH), the pEC50 in experiment [1] is 9.07; in experiment [2], 5.85.
`CC(=O)N[C@@H](Cc1cnc[nH]1)C(=O)N[C@@H](CO)C(=O)N[C@@H](CC(=O)O)C(=O)N[C@@H](C)C(=O)N[C@H](C(=O)N[C@@H](Cc1ccccc1)C(=O)N[C@H](C(=O)N[C@@H](CCC(=O)O)C(=O)N[C@@H](CC(N)=O)C(=O)N[C@@H](Cc1ccc(O)cc1)C(=O)N[C@H](C(=O)N[C@@H](CCCCN)C(=O)N[C@@H](CC(C)C)C(=O)N[C@@H](CCCNC(=N)N)C(=O)N[C@@H](CCCCN)C(=O)N[C@@H](CCC(N)=O)C(=O)N[C@H]1CCC[C@@H]1C(=O)N[C@@H](C)C(=O)N[C@@H](C)C(=O)N[C@@H](CCCCN)C(=O)N[C@H]1CNC[C@@H]1C(=O)N[C@@H](Cc1ccc(O)cc1)C(=O)N[C@@H](CC(C)C)C(=O)N[C@H]1CCC[C@@H]1C(=O)N[C@@H](CC(=O)O)C(=O)N[C@@H](CC(C)C)C(=O)N[C@@H](CCCCN)C(=O)NC(CCCCN)CC(=O)NCC(=O)NCC(=O)N[C@H](C(=O)O)[C@@H](C)O)[C@@H](C)O)[C@@H](C)O)C(C)C` (stereo partly drawn) (Ac-HSDAVFTENYTKLRKQ[X1]AAK[X2]YL[X1]DLK[ξβ3hK]GGT-OH): the negative logarithm of the EC50 (pEC50) is 9.37 in experiment [1] and 8.02 in experiment [2].
For `CC(=O)N[C@@H](Cc1cnc[nH]1)C(=O)N[C@H]1CCC[C@@H]1C(=O)N[C@@H](CC(=O)O)C(=O)N[C@@H](C)C(=O)NC(CC(=O)N[C@@H](Cc1ccccc1)C(=O)N[C@H](C(=O)N[C@@H](CCC(=O)O)C(=O)N[C@@H](CC(N)=O)C(=O)N[C@@H](Cc1ccc(O)cc1)C(=O)N[C@H](C(=O)N[C@@H](CCCCN)C(=O)NC(CC(=O)N[C@@H](CCCNC(=N)N)C(=O)N[C@@H](CCCCN)C(=O)N[C@@H](CCC(N)=O)C(=O)N[C@@H](CC(C)C)C(=O)N[C@@H](C)C(=O)N[C@@H](C)C(=O)N[C@H]1CNC[C@@H]1C(=O)N[C@@H](CCCCN)C(=O)N[C@@H](Cc1ccc(O)cc1)C(=O)N[C@H]1CCC[C@@H]1C(=O)N[C@@H](CC(N)=O)C(=O)N[C@@H](CC(=O)O)C(=O)N[C@@H](CC(C)C)C(=O)NC(CCCCN)CC(=O)N[C@@H](CCCCN)C(=O)NCC(=O)NCCC(=O)N[C@H](C(=O)O)[C@@H](C)O)CC(C)C)[C@@H](C)O)[C@@H](C)O)C(C)C` (stereo partly drawn) (Ac-H[X1]DA[ξβ3hV]FTENYTK[ξβ3hL]RKQLAA[X2]KY[X1]NDL[ξβ3hK]KG[βAla]T-OH), in that order: 8.87 and 5.85.
For `CC(=O)N[C@@H](Cc1cnc[nH]1)C(=O)NC(C)(C)C(=O)N[C@@H](CC(=O)O)C(=O)N[C@@H](C)C(=O)N[C@H](CC(=O)N[C@@H](Cc1ccccc1)C(=O)N[C@H](C(=O)N[C@@H](CCC(=O)O)C(=O)N[C@@H](CC(N)=O)C(=O)N[C@@H](Cc1ccc(O)cc1)C(=O)N[C@H](C(=O)N[C@@H](CCCCN)C(=O)N[C@@H](CC(C)C)C(=O)N[C@@H](CCCNC(=N)N)C(=O)N[C@@H](CCCCN)C(=O)N[C@@H](CCC(N)=O)C(=O)N[C@@H](CC(C)C)C(=O)N[C@@H](C)C(=O)N[C@@H](C)C(=O)N[C@H]1CNC[C@@H]1C(=O)N[C@@H](CCCCN)C(=O)N[C@@H](Cc1ccc(O)cc1)C(=O)N[C@H]1CCC[C@@H]1C(=O)N[C@@H](CC(N)=O)C(=O)N[C@@H](CC(=O)O)C(=O)N[C@@H](CC(C)C)C(=O)NC(CCCCN)CC(=O)N[C@@H](CCCCN)C(=O)NCC(=O)NCCC(=O)N[C@H](C(=O)O)[C@@H](C)O)[C@@H](C)O)[C@@H](C)O)C(C)C` (stereo partly drawn) (Ac-H[Aib]DA[β3hV]FTENYTKLRKQLAA[X2]KY[X1]NDL[ξβ3hK]KG[βAla]T-OH), in that order: 9.09 and under 6.00.
As to `CC(=O)N[C@@H](Cc1cnc[nH]1)C(=O)NC(C)(C)C(=O)N[C@@H](CC(=O)O)C(=O)N[C@@H](C)C(=O)N[C@H](C(=O)N[C@@H](Cc1ccccc1)C(=O)N[C@H](C(=O)N[C@@H](CCC(=O)O)C(=O)N[C@@H](CC(N)=O)C(=O)N[C@@H](Cc1ccc(O)cc1)C(=O)N[C@H](C(=O)N[C@@H](CCCCN)C(=O)N[C@@H](CC(C)C)C(=O)N[C@@H](CCCNC(=N)N)C(=O)N[C@@H](CCCCN)C(=O)N[C@@H](CCC(N)=O)C(=O)N[C@@H](CC(C)C)C(=O)N[C@@H](C)C(=O)N[C@@H](C)C(=O)N[C@H]1CNC[C@@H]1C(=O)N[C@@H](CCCCN)C(=O)N[C@@H](Cc1ccc(O)cc1)C(=O)N[C@H]1CCC[C@@H]1C(=O)N[C@@H](CC(N)=O)C(=O)N[C@@H](CC(=O)O)C(=O)N[C@@H](CC(C)C)C(=O)NC(CCCCN)CC(=O)N[C@@H](CCCCN)C(=O)NCC(=O)NCCC(=O)N[C@H](C(=O)O)[C@@H](C)O)[C@@H](C)O)[C@@H](C)O)C(C)C` (stereo partly drawn) (Ac-H[Aib]DAVFTENYTKLRKQLAA[X2]KY[X1]NDL[ξβ3hK]KG[βAla]T-OH), the pEC50 in experiment [1] was 9.28; in experiment [2] it was 6.29.
For `CC[C@H](C)[C@H](NC(=O)[C@H](C)NC(=O)[C@H](CC(N)=O)NC(=O)CC(CC(C)C)NC(=O)[C@H](Cc1ccc(O)cc1)NC(=O)[C@H](CCCCN)NC(=O)[C@H](CCCCN)NC(=O)CC(NC(=O)[C@H](C)NC(=O)[C@H](CC(C)C)NC(=O)[C@H](CCC(N)=O)NC(=O)CC(CCCCN)NC(=O)[C@H](CCCNC(=N)N)NC(=O)[C@H](CC(C)C)NC(=O)[C@H](CCCNC(=N)N)NC(=O)CC(NC(=O)[C@H](Cc1ccc(O)cc1)NC(=O)CC(CC(N)=O)NC(=O)[C@H](CC(=O)O)NC(=O)[C@@H](NC(=O)[C@H](Cc1ccccc1)NC(=O)CC(NC(=O)[C@H](C)NC(=O)[C@H](CC(=O)O)NC(=O)CC(CO)NC(=O)[C@@H](N)Cc1cnc[nH]1)C(C)C)[C@@H](C)O)C(C)O)C(C)C)C(=O)NC(CC(=O)N[C@@H](CC(N)=O)C(=O)O)CC(C)C` (stereo partly drawn) (H-H[ξβ3hS]DA[ξβ3hV]FTD[ξβ3hN]Y[ξβ3hT]RLR[ξβ3hK]QLA[ξβ3hV]KKY[ξβ3hL]NAI[ξβ3hL]N-OH), in that order: 6.30 and 3.53.
For `CC(=O)N[C@@H](Cc1cnc[nH]1)C(=O)N[C@H]1CCC[C@@H]1C(=O)N[C@@H](CC(=O)O)C(=O)N[C@@H](C)C(=O)NC(CC(=O)N[C@@H](Cc1ccccc1)C(=O)N[C@H](C(=O)N[C@@H](CCC(=O)O)C(=O)N[C@@H](CC(N)=O)CC(=O)N[C@@H](Cc1ccc(O)cc1)C(=O)N[C@H](C(=O)N[C@@H](CCCCN)C(=O)N[C@@H](CC(C)C)C(=O)N[C@@H](CCCNC(=N)N)C(=O)N[C@@H](CCCCN)C(=O)N[C@@H](CCC(N)=O)C(=O)NC(CC(=O)N[C@@H](C)C(=O)N[C@@H](C)C(=O)N[C@H]1CNC[C@@H]1C(=O)N[C@@H](CCCCN)C(=O)N[C@@H](Cc1ccc(O)cc1)C(=O)N[C@H]1CCC[C@@H]1C(=O)N[C@@H](CC(N)=O)C(=O)N[C@@H](CC(=O)O)C(=O)N[C@@H](CC(C)C)C(=O)NC(CCCCN)CC(=O)N[C@@H](CCCCN)C(=O)NCC(=O)NCCC(=O)N[C@H](C(=O)O)[C@@H](C)O)CC(C)C)[C@@H](C)O)[C@@H](C)O)C(C)C` (stereo partly drawn) (Ac-H[X1]DA[ξβ3hV]FTE[β3hN]YTKLRKQ[ξβ3hL]AA[X2]KY[X1]NDL[ξβ3hK]KG[βAla]T-OH), in that order: 8.90 and under 6.00.

For the origin of these results see ChEMBL document CHEMBL4257221, “Peptides comprising non-natural amino acids and methods of making and using the same” (2016).
